The target in the experiment is T1, voltage-dependent T-type calcium channel subunit alpha-1G (Cav3.2) (Homo sapiens, UniProt O95180).
T1 construct: expressed in transfected cells; host or cells: HEK293
T1 sequence (O95180 whole entry): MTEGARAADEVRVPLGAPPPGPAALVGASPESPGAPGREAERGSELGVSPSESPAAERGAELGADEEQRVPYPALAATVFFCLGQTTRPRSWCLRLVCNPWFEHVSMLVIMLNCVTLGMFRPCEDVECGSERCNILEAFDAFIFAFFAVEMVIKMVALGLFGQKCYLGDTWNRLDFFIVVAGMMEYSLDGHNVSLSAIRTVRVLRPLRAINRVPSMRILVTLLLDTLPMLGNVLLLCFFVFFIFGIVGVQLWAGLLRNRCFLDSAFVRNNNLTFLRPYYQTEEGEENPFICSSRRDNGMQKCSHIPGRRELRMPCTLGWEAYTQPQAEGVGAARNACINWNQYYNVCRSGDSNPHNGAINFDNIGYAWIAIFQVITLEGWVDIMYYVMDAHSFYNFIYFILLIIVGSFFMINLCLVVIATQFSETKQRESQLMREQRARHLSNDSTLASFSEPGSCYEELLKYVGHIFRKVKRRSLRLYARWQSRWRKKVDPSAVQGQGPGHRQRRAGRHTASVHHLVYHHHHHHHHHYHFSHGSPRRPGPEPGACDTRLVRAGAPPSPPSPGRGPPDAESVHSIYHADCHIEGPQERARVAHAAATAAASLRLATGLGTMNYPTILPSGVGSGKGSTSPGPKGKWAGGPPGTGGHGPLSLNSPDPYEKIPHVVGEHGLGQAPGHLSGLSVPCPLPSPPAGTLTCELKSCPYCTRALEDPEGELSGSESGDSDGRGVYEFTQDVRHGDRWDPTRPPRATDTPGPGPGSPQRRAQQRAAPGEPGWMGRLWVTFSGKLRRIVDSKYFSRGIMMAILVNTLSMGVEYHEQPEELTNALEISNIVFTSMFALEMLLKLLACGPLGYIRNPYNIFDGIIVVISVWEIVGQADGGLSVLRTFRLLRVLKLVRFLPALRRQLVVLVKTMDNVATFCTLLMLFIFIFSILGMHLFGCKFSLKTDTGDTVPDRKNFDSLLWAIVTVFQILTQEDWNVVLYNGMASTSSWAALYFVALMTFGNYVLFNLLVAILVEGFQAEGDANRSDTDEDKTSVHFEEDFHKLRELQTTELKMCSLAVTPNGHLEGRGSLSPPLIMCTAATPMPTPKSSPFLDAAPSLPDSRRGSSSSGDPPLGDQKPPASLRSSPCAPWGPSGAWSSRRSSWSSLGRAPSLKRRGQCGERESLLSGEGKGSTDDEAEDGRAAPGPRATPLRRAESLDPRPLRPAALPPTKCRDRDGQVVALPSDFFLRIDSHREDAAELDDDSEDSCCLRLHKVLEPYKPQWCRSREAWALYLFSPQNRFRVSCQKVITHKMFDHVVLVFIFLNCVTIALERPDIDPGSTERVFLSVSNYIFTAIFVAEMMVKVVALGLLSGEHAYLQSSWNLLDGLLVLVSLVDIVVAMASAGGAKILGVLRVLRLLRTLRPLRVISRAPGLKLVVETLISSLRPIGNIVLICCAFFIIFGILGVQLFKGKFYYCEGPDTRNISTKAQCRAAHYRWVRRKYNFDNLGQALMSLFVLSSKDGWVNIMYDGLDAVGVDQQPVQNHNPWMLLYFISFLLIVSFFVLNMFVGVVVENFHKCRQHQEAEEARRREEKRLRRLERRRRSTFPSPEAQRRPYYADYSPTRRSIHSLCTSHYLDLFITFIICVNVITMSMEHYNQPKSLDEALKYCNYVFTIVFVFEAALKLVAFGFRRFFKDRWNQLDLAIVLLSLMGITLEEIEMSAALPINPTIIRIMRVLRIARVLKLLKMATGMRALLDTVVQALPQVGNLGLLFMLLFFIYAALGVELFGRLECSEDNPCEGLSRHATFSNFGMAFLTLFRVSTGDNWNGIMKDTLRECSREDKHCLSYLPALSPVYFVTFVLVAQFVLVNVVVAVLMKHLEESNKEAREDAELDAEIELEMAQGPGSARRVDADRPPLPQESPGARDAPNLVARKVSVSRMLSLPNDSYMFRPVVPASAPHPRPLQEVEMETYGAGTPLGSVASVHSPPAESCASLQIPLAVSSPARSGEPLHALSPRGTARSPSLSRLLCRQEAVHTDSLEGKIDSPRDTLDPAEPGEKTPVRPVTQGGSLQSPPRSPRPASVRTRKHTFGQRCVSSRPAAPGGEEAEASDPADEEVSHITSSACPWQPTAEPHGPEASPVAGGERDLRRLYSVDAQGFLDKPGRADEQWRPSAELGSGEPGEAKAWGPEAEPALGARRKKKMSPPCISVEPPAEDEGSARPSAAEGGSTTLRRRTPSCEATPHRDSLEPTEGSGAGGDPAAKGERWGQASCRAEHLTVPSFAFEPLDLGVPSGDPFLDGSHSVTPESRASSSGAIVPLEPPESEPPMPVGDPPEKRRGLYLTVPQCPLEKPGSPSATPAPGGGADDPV
As to the kind of experiment: FLIPR calcium flux assay, HEK293 cells recombinantly expressing Cav3.2. The conditions noted are these: Cav3.2-channel, Fluo-4-AM, 3 min incubation, stimulation with 10 mM CaCl2. It is filed as cell-based. On the procedure: In Vitro Methods—Measurement of Calcium Channel Flux by Means of FLIPR Assays.
HEK293 cells recombinantly expressing either voltage-dependent T-type calcium channel subunit […] (Cav3.2) or voltage-dependent L-type calcium channel subunit alpha-1C (Cav1.2) are assayed for calcium flux using the calcium indicator dye Fluo-4-AM (Molecular Devices) and FLIPR technology (Fluorometric Imaging Plate Reader, Molecular Devices) (Xie X, Van Deusen A L, Vitko I, Babu D A, Davies L A, Huynh N, Cheng H, Yang N, Barrett P Q, Perez-Reyes E. Validation of high throughput screening assays against three subtypes of Ca(v)3 T-type channels using molecular and pharmacologic approaches. Assay and Drug Development Technologies 2007, 5(2), 191-203). The HEK293 cells recombinantly expressing Cav3.2 are maintained in DMEM growth medium (Life Technologies) supplemented with 10% Fetal Bovine Serum (FBS), 100 U/ml penicilin (Life Technologies), 100 μg/ml streptomycin (Life Technologies) and 1 mg/ml G418 (Life Technologies). HEK293 cells recombinantly expressing Cav1.2 are maintained in DMEM growth medium (Life technologies) supplemented with 10% FBS, 0.1 mg/ml G418 (Life Technologies), 0.1 mg/ml hygromycin (Life Technologies) and 40 ug/ml zeocin (Life Technologies).
The seeded plates are incubated overnight at 37° C.
The cells are then washed three times with assay buffer (HBSS 1×; 0.375 g/L NaHCO3; 20 mM Hepes; 1% FBS; pH 7.4) and allowed to rest in 50 μl of wash buffer for 30 minutes.
Stock solutions of test compounds are prepared to a concentration of 10 mM in DMSO. For the Cav3.2 assay, serial dilutions of the compounds are prepared in TEAC buffer (100 mM tetraethylammonium chloride; 20 mM Hepes; 2.5 mM CaCl2; 5 mM KCl; 1 mM MgCl2; 1% FBS; pH 7.2), for the Cav1.2 assay serial dilutions are prepared in assay buffer. […] The compounds are incubated with the cells for 3 minutes and Ca2+ entry is stimulated by adding either CaCl2 to a final concentration of 10 mM (Cav3.2 assay) or by adding KCl to a final concentration of 20 mM (Cav1.2 assay). The kinetics of fluorescence increase are recorded for every well and the area under the fluorescence trace for every compound concentration is used to generate inhibition curves using non-linear regression sigmoidal concentration-response curve analysis with in-house software.
On to `CN(C)c1ccc(CC(=O)Nc2ccn(Cc3ccc(Cl)c(OC(F)(F)F)c3)n2)cc1` [Example 34, N-[1-(4-Chloro-3-trifluoromethoxy-benzyl)-1H-pyrazol-3-yl]-2-(4-dimethylamino-phenyl)-acetamide], for which the IC50 (in general, the concentration at which inhibition is half-maximal) amounted to 91 nM.
The value for `CCc1ccc(Cn2ccc(NC(=O)Cc3ccc(N(C)C)nc3)n2)cc1` [Example 35, 2-(6-Dimethylamino-pyridin-3-yl)-N-[1-(4-ethyl-benzyl)-1H-pyrazol-3-yl]-acetamide] was 43 nM.
The value for `CN(C)c1ccc(CC(=O)Nc2ccn(Cc3ccc(OC(F)F)cc3)n2)cn1` [Example 36, N-[1-(4-Difluoromethoxy-benzyl)-1H-pyrazol-3-yl]-2-(6-dimethylamino-pyridin-3-yl)-acetamide] was 160 nM.
The value for `CN(C)c1ccc(CC(=O)Nc2ccn(Cc3ccc(OC(F)(F)F)cc3)n2)cn1` [Example 37, 2-(6-Dimethylamino-pyridin-3-yl)-N-[1-(4-trifluoromethoxy-benzyl)-1H-pyrazol-3-yl]-acetamide] was 29 nM.
Turning to `Cc1ccc(Cn2ccc(NC(=O)Cc3ccc(N(C)C)nc3)n2)cc1F` [Example 38, 2-(6-Dimethylamino-pyridin-3-yl)-N-[1-(3-fluoro-4-methyl-benzyl)-1H-pyrazol-3-yl]-acetamide], the concentration for half-maximal inhibition (IC50) amounted to 39 nM.
The value for `Cc1cc(Cn2ccc(NC(=O)Cc3ccc(N(C)C)nc3)n2)ccc1F` [Example 39, 2-(6-Dimethylamino-pyridin-3-yl)-N-[1-(4-fluoro-3-methyl-benzyl)-1H-pyrazol-3-yl]-acetamide] was 49 nM; that for `CN(C)c1ccc(CC(=O)Nc2ccn(Cc3ccc(F)c(Cl)c3)n2)cn1` [Example 40, N-[1-(3-Chloro-4-fluoro-benzyl)-1H-pyrazol-3-yl]-2-(6-dimethylamino-pyridin-3-yl)-acetamide] was 16 nM.
Under `CN(C)c1ccc(CC(=O)Nc2ccn(Cc3cc(F)c(F)c(F)c3)n2)cn1` [Example 41, 2-(6-Dimethylamino-pyridin-3-yl)-N-[1-(3,4,5-trifluoro-benzyl)-1H-pyrazol-3-yl]-acetamide] stands 38 nM; under `CN(C)c1ccc(CC(=O)Nc2ccn(Cc3ccc(Cl)c(F)c3)n2)cn1` [Example 42, N-[1-(4-Chloro-3-fluoro-benzyl)-1H-pyrazol-3-yl]-2-(6-dimethylamino-pyridin-3-yl)-acetamide], 19 nM; under `COc1c(F)cc(Cn2ccc(NC(=O)Cc3ccc(N(C)C)nc3)n2)cc1F` [Example 43, N-[1-(3,5-Difluoro-4-methoxy-benzyl)-1H-pyrazol-3-yl]-2-(6-dimethylamino-pyridin-3-yl)-acetamide], 82 nM.
Consider `COc1ccc(Cn2ccc(NC(=O)Cc3ccc(N(C)C)cc3)n2)nc1` [Example 44, 2-(4-Dimethylamino-phenyl)-N-[1-(5-methoxy-pyridin-2-ylmethyl)-1H-pyrazol-3-yl]-acetamide], for which the half-inhibitory concentration (IC50) is 372 nM.
Under `COc1ccc(Cn2ccc(NC(=O)Cc3ccc(OCC(F)(F)F)cc3)n2)cc1` [Example 45, N-[1-(4-Methoxy-benzyl)-1H-pyrazol-3-yl]-2-[4-(2,2,2-trifluoro-ethoxy)-phenyl]-acetamide] stands 33 nM.
The value for `O=C(Cc1ccc(OCC(F)(F)F)cc1)Nc1ccn(Cc2ccc(F)cc2)n1` [Example 46, N-[1-(4-Fluoro-benzyl)-1H-pyrazol-3-yl]-2-[4-(2,2,2-trifluoro-ethoxy)-phenyl]-acetamide] was 26 nM; that for `N#Cc1ccc(Cn2ccc(NC(=O)Cc3ccc(OCC(F)(F)F)cc3)n2)cc1` [Example 47, N-[1-(4-Cyano-benzyl)-1H-pyrazol-3-yl]-2-[4-(2,2,2-trifluoro-ethoxy)-phenyl]-acetamide] was 37 nM; that for `CCN(C)c1ccc(CC(=O)Nc2ccn(Cc3ccc(F)cc3)n2)cn1` [Example 48, 2-[6-(Ethyl-methyl-amino)-pyridin-3-yl]-N-[1-(4-fluoro-benzyl)-1H-pyrazol-3-yl]-acetamide] was 138 nM.
Under `O=C(Cc1ccc(N2CC(F)(F)C2)cc1)Nc1ccn(Cc2ccc(F)cc2)n1` [Example 49, 2-[4-(3,3-Difluoro-azetidin-1-yl)-phenyl]-N-[1-(4-fluoro-benzyl)-H-pyrazol-3-yl]-acetamide] stands 9.2 nM; under `N#Cc1ccc(Cn2ccc(NC(=O)Cc3ccc(N4CC(F)(F)C4)cc3)n2)cc1` [Example 50, N-[1-(4-Cyano-benzyl)-1H-pyrazol-3-yl]-2-[4-(3,3-difluoro-azetidin-1-yl)-phenyl]-acetamide], 11 nM; under `COc1ccc(Cn2ccc(NC(=O)Cc3ccc(N4CC(F)(F)C4)cc3)n2)cc1` [Example 51, 2-[4-(3,3-Difluoro-azetidin-1-yl)-phenyl]-N-[1-(4-methoxy-benzyl)-1H-pyrazol-3-yl]-acetamide], 16 nM.
Consider `O=C(Cc1ccc(N2CC(F)(F)C2)cc1)Nc1ccn(Cc2ccc(F)c(F)c2)n1` [Example 52, 2-[4-(3,3-Difluoro-azetidin-1-yl)-phenyl]-N-[1-(3,4-difluoro-benzyl)-1H-pyrazol-3-yl]-acetamide], for which the IC50 worked out at 2.6 nM.
The value for `O=C(Cc1ccc(N2CCC2)cc1)Nc1ccn(Cc2ccc(F)cc2)n1` [Example 53, 2-(4-Azetidin-1-yl-phenyl)-N-[1-(4-fluoro-benzyl)-1H-pyrazol-3-yl]-acetamide] was 6.7 nM; that for `N#Cc1ccc(Cn2ccc(NC(=O)Cc3ccc(N4CCC4)cc3)n2)cc1` [Example 54, 2-(4-Azetidin-1-yl-phenyl)-N-[1-(4-cyano-benzyl)-1H-pyrazol-3-yl]-acetamide] was 28 nM.
The value for `COc1ccc(Cn2ccc(NC(=O)Cc3ccc(N4CCC4)cc3)n2)cc1` [Example 55, 2-(4-Azetidin-1-yl-phenyl)-N-[1-(4-methoxy-benzyl)-1H-pyrazol-3-yl]-acetamide] was 33 nM; that for `CN(C)c1ccc(CC(=O)Nc2ccn(Cc3ccc(C#N)c(F)c3)n2)cn1` [Example 58, N-[1-(4-Cyano-3-fluoro-benzyl)-1H-pyrazol-3-yl]-2-(6-dimethylamino-pyridin-3-yl)-acetamide] was 285 nM.
The value for `O=C(Cc1ccc(N2CCC2)cc1)Nc1ccn(Cc2ccc(F)c(F)c2)n1` [Example 60, 2-(4-Azetidin-1-yl-phenyl)-N-[1-(3,4-difluoro-benzyl)-1H-pyrazol-3-yl]-acetamide] was 4.7 nM; that for `O=C(Cc1ccc(N2CC[C@H](F)C2)cc1)Nc1ccn(Cc2ccc(F)c(F)c2)n1` [Example 61, N-[1-(3,4-Difluoro-benzyl)-1H-pyrazol-3-yl]-2-[4-((S)-3-fluoro-pyrrolidin-1-yl)-phenyl]-acetamide] was 3.4 nM.
`O=C(Cc1ccc(N2CC(F)C2)cc1)Nc1ccn(Cc2ccc(F)c(F)c2)n1` [Example 62, N-[1-(3,4-Difluoro-benzyl)-1H-pyrazol-3-yl]-2-[4-(3-fluoro-azetidin-1-yl)-phenyl]-acetamide]: the concentration for half-maximal inhibition (IC50) turned out to be 3.8 nM.
The value for `O=C(Cc1ccc(OC2CC2)cc1)Nc1ccn(Cc2ccc(F)cc2)n1` [Example 63, 2-(4-Cyclopropoxy-phenyl)-N-[1-(4-fluoro-benzyl)-1H-pyrazol-3-yl]-acetamide] was 38 nM.
Consider `N#Cc1ccc(Cn2ccc(NC(=O)Cc3ccc(OC4CC4)cc3)n2)cc1` [Example 64, N-[1-(4-Cyano-benzyl)-1H-pyrazol-3-yl]-2-(4-cyclopropoxy-phenyl)-acetamide], for which the IC50 was 80 nM.
As for `COc1ccc(Cn2ccc(NC(=O)Cc3ccc(OC4CC4)cc3)n2)cc1` [Example 65, 2-(4-Cyclopropoxy-phenyl)-N-[1-(4-methoxy-benzyl)-1H-pyrazol-3-yl]-acetamide], the 50% inhibitory concentration (IC50) came to 74 nM.
As for `O=C(Cc1ccc(OC2CC2)cc1)Nc1ccn(Cc2ccc(F)c(F)c2)n1` [Example 66, 2-(4-Cyclopropoxy-phenyl)-N-[1-(3,4-difluoro-benzyl)-1H-pyrazol-3-yl]-acetamide], the half-maximal inhibitory concentration (IC50) came to 19 nM.
Under `O=C(Cc1ccc(N2CCC(F)(F)C2)cc1)Nc1ccn(Cc2ccc(F)c(F)c2)n1` [Example 67, N-[1-(3,4-Difluoro-benzyl)-1H-pyrazol-3-yl]-2-[4-(3,3-difluoro-pyrrolidin-1-yl)-phenyl]-acetamide] stands 3.4 nM; under `O=C(Cc1ccc(N2CC[C@@H](F)C2)cc1)Nc1ccn(Cc2ccc(F)c(F)c2)n1` [Example 68, N-[1-(3,4-Difluoro-benzyl)-1H-pyrazol-3-yl]-2-[4-((R)-3-fluoro-pyrrolidin-1-yl)-phenyl]-acetamide], 4.8 nM.

These data come from patent US9932314B2, “Pyrazole compounds and their use as T-type calcium channel blockers” (IDORSIA PHARMACEUTICALS LTD, priority 2015, dated 2018).
